Test system: AMPK
Test: AMPK activation assay (enzyme-linked immunosorbent assay)
Assay type: cell-based
Outline: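 Kit-based immunoassay; compounds screened as activators; standard reagents and protocol.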

| EC50 [nM] | Structure (SMILES) |
| --- | --- |
| < 500 | N#Cc1ccc(OC2CCN(C(=O)c3ccc(C(=O)N[C@H]4CC[C@@H](Oc5ccc(F)cc5)CC4)nc3)CC2)cc1 [Compound 303, 5-(4-(4-cyanophenoxy)piperidine-1-carbonyl)-N-((cis)-4-(4-fluorophenoxy)cyclohexyl)picolinamide] |
| < 500 | O=C(N[C@H]1CC[C@@H](Oc2ccc(F)cc2)CC1)c1ccc(C(=O)N2CCC(C(=O)c3ccc(F)cc3)CC2)cn1 [Compound 304, 5-(4-(4-fluorobenzoyl)piperidine-1-carbonyl)-N-((cis)-4-(4-fluorophenoxy)cyclohexyl)picolinamide] |
| < 500 | COc1ccc(C(=O)C2CCN(C(=O)c3ccc(C(=O)NCCOc4ccc(F)cc4)nc3)CC2)cc1 [Compound 305, N-(2-(4-fluorophenoxy)ethyl)-5-(4-(4-methoxybenzoyl)piperidine-1-carbonyl)picolinamide] |
| < 500 | COc1ccc(C(=O)C2CCN(C(=O)c3ccc(C(=O)NC4CCN(Cc5cc(F)cc(F)c5)CC4)cn3)CC2)cc1 [Compound 310, N-(1-(3,5-difluorobenzyl)piperidin-4-yl)-6-(4-(4-methoxybenzoyl)piperidine-1-carbonyl)nicotinamide] |
| < 500 | COc1ccc(C(=O)C2CCN(C(=O)c3ccc(C(=O)N[C@H]4CC[C@@H](Oc5ccc(F)cc5)CC4)nc3)CC2)cc1 [Compound 311, N-((cis)-4-(4-fluorophenoxy)cyclohexyl)-5-(4-(4-methoxybenzoyl)piperidine-1-carbonyl)picolinamide] |
| < 500 | O=C(N[C@H]1CC[C@@H](Oc2ccc(F)cc2)CC1)c1ccc(C(=O)N2CCC(Oc3ccc(F)cc3)CC2)cn1 [Compound 312, N-((cis)-4-(4-fluorophenoxy)cyclohexyl)-5-(4-(4-fluorophenoxy)piperidine-1-carbonyl)picolinamide] |
| < 500 | COc1ccc(C(=O)C2CCN(C(=O)c3ccc(C(=O)NC4CCC(Oc5ccc(C#N)cc5)CC4)cn3)CC2)cc1 (stereo not shown) [Compound 315, N-((1s,4s)-4-(4-cyanophenoxy)cyclohexyl)-6-(4-(4-methoxybenzoyl)piperidine-1-carbonyl)nicotinamide] |
| < 500 | COc1ccc(C(=O)C2CCN(C(=O)c3ccc(C(=O)N[C@H]4CC[C@@H](Oc5ccc(F)cc5)CC4)cn3)CC2)cc1 [Compound 316, N-((cis)-4-(4-fluorophenoxy)cyclohexyl)-6-(4-(4-methoxybenzoyl)piperidine-1-carbonyl)nicotinamide] |
| < 500 | COc1ccc(C(=O)C2CCN(C(=O)c3ccc(C(=O)NC4CCN(Cc5ccc(F)cc5)CC4)cn3)CC2)cc1 [Compound 317, N-(1-(4-fluorobenzyl)piperidin-4-yl)-6-(4-(4-methoxybenzoyl)piperidine-1-carbonyl)nicotinamide] |
| < 500 | COc1ccc(CN2CCC(NC(=O)c3ccc(C(=O)N4CCC(C(=O)c5ccc(OC)cc5)CC4)nc3)CC2)cc1 [Compound 318, 6-(4-(4-methoxybenzoyl)piperidine-1-carbonyl)-N-(1-(4-methoxybenzyl)piperidin-4-yl) nicotinamide] |
| < 500 | COc1ccc(CN2CCC(NC(=O)c3ccc(C(=O)N4CCC(Oc5ccc(C#N)cc5)CC4)nc3)CC2)cc1 [Compound 319, 6-(4-(4-cyanophenoxy)piperidine-1-carbonyl)-N-(1-(4-methoxybenzyl)piperidin-4-yl) nicotinamide] |
| < 500 | N#Cc1ccc(OC2CCN(C(=O)c3ccc(C(=O)NC4CCN(Cc5ccc(F)cc5)CC4)cn3)CC2)cc1 [Compound 320, 6-(4-(4-cyanophenoxy)piperidine-1-carbonyl)-N-(1-(4-fluorobenzyl)piperidin-4-yl)nicotinamide] |
| < 500 | N#Cc1ccc(OC2CCN(C(=O)c3ccc(C(=O)N[C@H]4CC[C@@H](Oc5ccc(C#N)cc5)CC4)cn3)CC2)cc1 [Compound 321, N-((cis)-4-(4-cyanophenoxy)cyclohexyl)-6-(4-(4-cyanophenoxy)piperidine-1-carbonyl)nicotinamide] |
| < 500 | N#Cc1ccc(OC2CCN(C(=O)c3ccc(C(=O)N[C@H]4CC[C@@H](Oc5ccc(F)cc5)CC4)cn3)CC2)cc1 [Compound 324, 6-(4-(4-cyanophenoxy)piperidine-1-carbonyl)-N-((cis)-4-(4-fluorophenoxy)cyclohexyl)nicotinamide] |
| < 500 | COc1ccc(C(=O)C2CCN(C(=O)c3ccc(C(=O)Nc4ccc(Oc5ccc(F)cc5)nc4)cn3)CC2)cc1 [Compound 325, N-(6-(4-fluorophenoxy)pyridin-3-yl)-6-(4-(4-methoxybenzoyl)piperidine-1-carbonyl)nicotinamide] |
| < 500 | COc1ccc(CN2CCC(NC(=O)c3ccc(C(=O)N4CCC(C(=O)c5ccc(F)c(F)c5)CC4)cn3)CC2)cc1 [Compound 329, 5-(4-(3,4-difluorobenzoyl)piperidine-1-carbonyl)-N-(1-(4-methoxybenzyl)piperidin-4-yl) picolinamide] |
| < 500 | COc1ccc(CN2CCC(NC(=O)c3ccc(C(=O)N4CCC(C(=O)c5ccc(F)cc5F)CC4)cn3)CC2)cc1 [Compound 331, 5-(4-(2,4-difluorobenzoyl)piperidine-1-carbonyl)-N-(1-(4-methoxybenzyl)piperidin-4-yl) picolinamide] |
| < 500 | N#Cc1ccc(O[C@H]2CC[C@@H](NC(=O)c3ccc(C(=O)N4CCN(Cc5ccc(F)cc5)CC4)nc3)CC2)cc1 [Compound 332, N-((cis)-4-(4-cyanophenoxy)cyclohexyl)-6-(4-(4-fluorobenzyl)piperazine-1-carbonyl)nicotinamide] |

More lines, now with the values behind:

| Structure (SMILES) | EC50 [nM] |
| --- | --- |
| N#Cc1ccc(CN2CCC(NC(=O)c3ccc(N4CCC(Oc5ccc(C(F)(F)F)cc5)CC4)cn3)CC2)cc1 [Compound 301, N-(1-(4-cyanobenzyl)piperidin-4-yl)-5-(4-(4-(trifluoromethyl)phenoxy)piperidin-1-yl)picolinamide] | < 500 |
| COc1ccc(C(=O)C2CCN(c3ccc(C(=O)NC4CCN(Cc5ccc(C#N)cc5)CC4)nc3)CC2)cc1 [Compound 302, N-(1-(4-cyanobenzyl)piperidin-4-yl)-5-(4-(4-methoxybenzoyl)piperidin-1-yl)picolinamide] | < 500 |
| N#Cc1ccc(OC2CCN(C(=O)c3ccc(C(=O)NCCOc4ccc(F)cc4)nc3)CC2)cc1 [Compound 306, 5-(4-(4-cyanophenoxy)piperidine-1-carbonyl)-N-(2-(4-fluorophenoxy)ethyl)picolinamide] | < 500 |
| N#Cc1ccc(CN2CCC(NC(=O)c3ccc(C(=O)N4CC(OCc5ccc(F)cc5)C4)cn3)CC2)cc1 [Compound 307, N-(1-(4-cyanobenzyl)piperidin-4-yl)-5-(3-(4-fluorobenzyloxy)azetidine-1-carbonyl)picolinamide] | 500 to 1000 |
| O=C(NC1CCN(Cc2cc(F)cc(F)c2)CC1)c1ccc(C(=O)N2CC(OCc3ccc(F)cc3)C2)cn1 [Compound 308, N-(1-(3,5-difluorobenzyl)piperidin-4-yl)-5-(3-(4-fluorobenzyloxy)azetidine-1-carbonyl)picolinamide] | < 500 |
| N#Cc1ccc(OC2CN(C(=O)c3ccc(C(=O)NC4CCN(Cc5cc(F)cc(F)c5)CC4)nc3)C2)cc1 [Compound 313, 5-(3-(4-cyanophenoxy)azetidine-1-carbonyl)-N-(1-(3,5-difluorobenzyl)piperidin-4-yl)picolinamide] | < 500 |
| N#Cc1ccc(-c2nnc3n2CCN(C(=O)c2ccc(C(=O)NC4CCN(Cc5cc(F)cc(F)c5)CC4)nc2)C3)cc1 [Compound 314, 5-(3-(4-cyanophenyl)-5,6,7,8-tetrahydro-[1,2,4]triazolo[4,3-a]pyrazine-7-carbonyl)-N-(1-(3,5-difluorobenzyl)piperidin-4-yl)picolinamide] | > 10000 |
| N#Cc1ccc(OC2CCN(C(=O)c3ccc(C(=O)NC4CCN(Cc5cc(F)cc(F)c5)CC4)cn3)CC2)cc1 [Compound 322, 6-(4-(4-cyanophenoxy)piperidine-1-carbonyl)-N-(1-(3,5-difluorobenzyl)piperidin-4-yl)nicotinamide] | < 500 |
| N#Cc1ccc(CN2CCC(NC(=O)c3ccc(C(=O)N4CCC(Oc5ccc(C#N)cc5)CC4)nc3)CC2)cc1 [Compound 323, N-(1-(4-cyanobenzyl)piperidin-4-yl)-6-(4-(4-cyanophenoxy)piperidine-1-carbonyl)nicotinamide] | < 500 |
| N#Cc1ccc(OC2CCN(C(=O)c3ccc(C(=O)Nc4ccc(Oc5ccc(F)cc5)nc4)cn3)CC2)cc1 [Compound 326, 6-(4-(4-cyanophenoxy)piperidine-1-carbonyl)-N-(6-(4-fluorophenoxy)pyridin-3-yl)nicotinamide] | < 500 |
| COc1ccc(CN2CCC(NC(=O)c3ccc(C(=O)N4CCN(Cc5ccc(F)cc5)CC4)nc3)CC2)cc1 [Compound 327, 6-(4-(4-fluorobenzyl)piperazine-1-carbonyl)-N-(1-(4-methoxybenzyl)piperidin-4-yl) nicotinamide] | < 500 |
| O=C(NC1CCN(Cc2ccc(F)cc2)CC1)c1ccc(C(=O)N2CCN(Cc3ccc(F)cc3)CC2)nc1 [Compound 328, 6-(4-(4-fluorobenzyl)piperazine-1-carbonyl)-N-(1-(4-fluorobenzyl)piperidin-4-yl)nicotinamide] | < 500 |
| O=C(Nc1ccc(Oc2ccc(F)cc2)nc1)c1ccc(C(=O)N2CCC(C(=O)c3ccc(F)c(F)c3)CC2)cn1 [Compound 330, 5-(4-(3,4-difluorobenzoyl)piperidine-1-carbonyl)-N-(6-(4-fluorophenoxy)pyridin-3-yl)picolinamide] | 500 to 1000 |
| CC(C)(C)OC(=O)N1CCC(NC(=O)c2ccc(C(=O)N3CCC(Oc4ccc(C#N)cc4)CC3)nc2)CC1 [Compound 333, tert-butyl 4-(6-(4-(4-cyanophenoxy)piperidine-1-carbonyl)nicotinamido) piperidine-1-carboxylate] | < 500 |
| O=C(Nc1ccc(Oc2ccc(F)cc2)nc1)c1ccc(C(=O)N2CCN(Cc3ccc(F)cc3)CC2)nc1 [Compound 334, 6-(4-(4-fluorobenzyl)piperazine-1-carbonyl)-N-(6-(4-fluorophenoxy)pyridin-3-yl)nicotinamide] | < 500 |
| N#Cc1ccc(OC2CCN(C(=O)c3ccc(C(=O)NC4CCNCC4)cn3)CC2)cc1 [Compound 335, 6-(4-(4-cyanophenoxy)piperidine-1-carbonyl)-N-(piperidin-4-yl) nicotinamide] | > 10000 |

Source: patent publication US20150087673A1, “METHODS FOR USING AND BIOMARKERS FOR AMPK-ACTIVATING COMPOUNDS” (RIGEL PHARMACEUTICALS, INC., priority 2013, published 2015)
